Test results from ChEMBL document CHEMBL3217659, “Synthesis and antifungal activity of 1,5-disubstituted-1,2,3-triazole containing fluconazole analogues” (Medchemcomm, 2012).
Converted amounts (≈) assume the structure as drawn.

What was measured:
Cryptococcus neoformans = test: Antifungal activity against Cryptococcus neoformans after 72 hrs by microbroth dilution technique; format: functional
Sporothrix schenckii = test: Antifungal activity against Sporothrix schenckii after 72 hrs by microbroth dilution technique; format: functional
[1] = test system: Trichophyton mentagrophytes; test: Antifungal activity against Trichophyton mentagrophytes after 96 hrs by microbroth dilution technique; format: functional
Candida albicans = test: Antifungal activity against Candida albicans after 48 hrs by microbroth dilution technique; format: functional
Candida parapsilosis = test: Antifungal activity against Candida parapsilosis after 48 hrs by microbroth dilution technique; format: functional
Aspergillus fumigatus = test: Antifungal activity against Aspergillus fumigatus after 72 hrs by microbroth dilution technique; format: functional
L929 [2] = test: Cytotoxicity against mouse L929 cells up to 3.12 ug/ml after 24 hrs using Giemsa staining by phase contrast microscopy; format: cell-based; settings: l929, 24 h
L929 [3] = test: Cytotoxicity against mouse L929 cells at >3.12 ug/ml after 24 hrs using Giemsa staining by phase contrast microscopy; format: cell-based; settings: l929, 24 h
[4] = Cryptococcus neoformans, 72 h, read-out: MIC
[5] = Sporothrix schenckii, 72 h, read-out: MIC
[6] = Trichophyton mentagrophytes, 96 h, read-out: MIC
[7] = Candida albicans, 48 h, read-out: MIC
[8] = Lodderomyces parapsilosis, 48 h, read-out: MIC
[9] = Aspergillus fumigatus, 72 h, read-out: MIC

With `CCCCCCc1cn(C[C@@](O)(Cn2cncn2)c2ccc(F)cc2F)nn1` the MIC (Cryptococcus neoformans; [4]) was 50 µg/mL (≈ 128 µM), the MIC (Sporothrix schenckii; [5]) was 0.78 µg/mL (≈ 2 µM) and the MIC [1, 6] was 6.25 µg/mL (≈ 16 µM). The MIC (Candida albicans; [7]) was 0.0225 µg/mL (≈ 0.0576 µM), the MIC (Candida parapsilosis; [8]) was 0.19 µg/mL (≈ 0.487 µM) and the MIC (Aspergillus fumigatus; [9]) was 50 µg/mL (≈ 128 µM).
In the case of `CCCCCCc1cn(C[C@](O)(Cn2cncn2)c2ccc(F)cc2F)nn1`, the MIC (Cryptococcus neoformans; [4]) is reported as 50 µg/mL (≈ 128 µM), the MIC (Sporothrix schenckii; [5]) is reported as 50 µg/mL (≈ 128 µM) and the MIC [1, 6] is reported as 50 µg/mL (≈ 128 µM). For the same compound, the MIC (Candida albicans; [7]) was 50 µg/mL (≈ 128 µM), the MIC (Candida parapsilosis; [8]) was > 50 µg/mL and the MIC (Aspergillus fumigatus; [9]) was > 50 µg/mL.
Work on `CCCCCCCCn1nncc1CC(O)(Cn1cncn1)c1ccc(F)cc1F` (racemic) yielded an MIC (Cryptococcus neoformans; [4]) of 50 µg/mL (≈ 119 µM), an MIC (Sporothrix schenckii; [5]) of 6.25 µg/mL (≈ 14.9 µM) and an MIC [1, 6] of 50 µg/mL (≈ 119 µM). For the same compound, the MIC (Candida albicans; [7]) was 0.39 µg/mL (≈ 0.932 µM), the MIC (Candida parapsilosis; [8]) was 50 µg/mL (≈ 119 µM) and the MIC (Aspergillus fumigatus; [9]) was > 50 µg/mL.
Work on `CCCCCCc1cnnn1CC(O)(Cn1cncn1)c1ccc(F)cc1F` (racemic) yielded an MIC (Cryptococcus neoformans; [4]) of 50 µg/mL (≈ 128 µM), an MIC (Sporothrix schenckii) of 3.12 µg/mL (≈ 7.99 µM) and an MIC [1, 6] of 50 µg/mL (≈ 128 µM). For the same compound, the MIC (Candida albicans) was 0.078 µg/mL (≈ 0.2 µM), the MIC (Candida parapsilosis; [8]) was > 50 µg/mL and the MIC (Aspergillus fumigatus; [9]) was 25 µg/mL (≈ 64 µM).
`CCCCCCCCn1cc(CC(O)(Cn2cncn2)c2ccc(F)cc2F)nn1` (racemic) showed an MIC (Cryptococcus neoformans; [4]) of 25 µg/mL (≈ 59.7 µM), an MIC (Sporothrix schenckii) of 0.045 µg/mL (≈ 0.108 µM) and an MIC [1] of 0.39 µg/mL (≈ 0.932 µM). For the same compound, the Activity (L929 [2]) was “Non-toxic”, the Activity (L929 [3]) was “Toxic” and the MIC (Candida albicans) was 0.007 µg/mL (≈ 0.0167 µM). It also gave an MIC (Candida parapsilosis) of 0.0112 µg/mL (≈ 0.0268 µM) and an MIC (Aspergillus fumigatus) of 3.12 µg/mL (≈ 7.46 µM).
With `CCCCCCc1cn(CC(O)(Cn2cncn2)c2ccc(F)cc2F)nn1` (racemic) the MIC (Cryptococcus neoformans; [4]) was 25 µg/mL (≈ 64 µM), the MIC (Sporothrix schenckii; [5]) was 0.78 µg/mL (≈ 2 µM) and the MIC [1, 6] was 12.5 µg/mL (≈ 32 µM). It also gave an MIC (Candida albicans; [7]) of 0.09 µg/mL (≈ 0.231 µM), an MIC (Candida parapsilosis; [8]) of 0.39 µg/mL (≈ 0.999 µM) and an MIC (Aspergillus fumigatus; [9]) of 25 µg/mL (≈ 64 µM).
`CCCCCCCCn1cc(CC(O)(Cn2cncn2)c2ccc(F)cc2F)nn1` (stereo in doubt; 2A) showed an MIC (Sporothrix schenckii) of 0.0225 µg/mL (≈ 0.0538 µM), an MIC [1] of 0.19 µg/mL (≈ 0.454 µM) and an MIC (Candida albicans) of 0.0011 µg/mL (≈ 0.00263 µM). For the same compound, the MIC (Candida parapsilosis) was 0.0011 µg/mL (≈ 0.00263 µM).
Work on `CCCCCCCCn1cc(CC(O)(Cn2cncn2)c2ccc(F)cc2F)nn1` (stereo in doubt; 2B) yielded an MIC (Cryptococcus neoformans) of 25 µg/mL (≈ 59.7 µM), an MIC (Sporothrix schenckii) of 12.5 µg/mL (≈ 29.9 µM) and an MIC [1] of 25 µg/mL (≈ 59.7 µM). The MIC (Candida albicans) was 12.5 µg/mL (≈ 29.9 µM), the MIC (Candida parapsilosis) was 50 µg/mL (≈ 119 µM) and the MIC (Aspergillus fumigatus) was 50 µg/mL (≈ 119 µM).
For `CCCCCCc1cnnn1CC(O)(Cn1cncn1)c1ccc(F)cc1F` (stereo in doubt; 9A), the MIC (Cryptococcus neoformans) was 50 µg/mL (≈ 128 µM), the MIC (Sporothrix schenckii) was 1.56 µg/mL (≈ 4 µM) and the MIC (Candida albicans) was 0.039 µg/mL (≈ 0.0999 µM). For the same compound, the MIC (Candida parapsilosis) was 50 µg/mL (≈ 128 µM) and the MIC (Aspergillus fumigatus) was >50 µg/mL.
`CCCCCCc1cnnn1CC(O)(Cn1cncn1)c1ccc(F)cc1F` (stereo in doubt; 9B) was tested, and the MIC (Cryptococcus neoformans) was >50 µg/mL, the MIC (Sporothrix schenckii) was >50 µg/mL and the MIC [1] was 50 µg/mL (≈ 128 µM). The MIC (Candida albicans) was >50 µg/mL.
In the case of `C[C@@H]1[C@H](O)[C@@H](C)/C=C/C=C/C=C/C=C/C=C/C=C/C=C/[C@H](O[C@@H]2O[C@H](C)[C@@H](O)[C@H](N)[C@@H]2O)C[C@@H]2O[C@](O)(C[C@@H](O)C[C@@H](O)[C@H](O)CC[C@@H](O)C[C@@H](O)CC(=O)O[C@H]1C)C[C@H](O)[C@H]2C(=O)O` [AMPHOTERICIN B], the MIC (Cryptococcus neoformans; [4]) is reported as 0.06 µg/mL (≈ 0.0649 µM), the MIC (Sporothrix schenckii; [5]) is reported as 0.12 µg/mL (≈ 0.13 µM) and the MIC [1, 6] is reported as 0.12 µg/mL (≈ 0.13 µM). For the same compound, the MIC (Candida albicans; [7]) was 0.12 µg/mL (≈ 0.13 µM), the MIC (Candida parapsilosis; [8]) was 0.12 µg/mL (≈ 0.13 µM) and the MIC (Aspergillus fumigatus; [9]) was 0.5 µg/mL (≈ 0.541 µM).
Compound `OC(Cn1cncn1)(Cn1cncn1)c1ccc(F)cc1F` [FLUCONAZOLE] has an MIC (Cryptococcus neoformans; [4]) of 1 µg/mL (≈ 3.27 µM), an MIC (Sporothrix schenckii; [5]) of 2 µg/mL (≈ 6.53 µM) and an MIC [1, 6] of 1 µg/mL (≈ 3.27 µM). The MIC (Candida albicans; [7]) was 0.5 µg/mL (≈ 1.63 µM), the MIC (Candida parapsilosis; [8]) was 1 µg/mL (≈ 3.27 µM) and the MIC (Aspergillus fumigatus; [9]) was 2 µg/mL (≈ 6.53 µM).
